Assay results from PMC12298270, “Development and Validation of a New LC-MS/MS Method for Simultaneous Quantification of Ivacaftor, Tezacaftor and Elexacaftor Plasma Levels in Pediatric Cystic Fibrosis Patients” (Pharmaceuticals, 2025).
Where two headings read alike, the source gives them in different places.

Key:
[1] = set-up: method as in PMID 36831163; conditions: cited from earlier work
[2] = set-up: method as in ref 18 = [18]; 18. U.S. Food and Drug Administration Center for Drug Evaluation and Research: Nda/Bla, Multi-Disciplinary Review and Evaluation, Lumacaftor/Ivacaftor Available online: https://www.accessdata.fda.gov/; conditions: Trikafta drug registration documents; cited from earlier work
[3] = Plasma levels of IVA, TEZ and ELX by LC-MS/MS in pediatric cystic fibrosis patients at steady state on Kaftrio; type: in vivo, human; conditions: for Cmax at 4 h / AUC(0-t): both sexes, human, plasma, oral; for Cmax at 4 h / Plasma concentration T0 (Ctrough), 25th Percentile / Plasma concentration T0 (Ctrough), 75th Percentile / Plasma concentration T0 (Ctrough), Median: steady state; for Cmax at 4 h: 4 h after morning Kaftrio dose; for Plasma concentration T0 (Ctrough), 25th Percentile / Plasma concentration T0 (Ctrough), 75th Percentile / Plasma concentration T0 (Ctrough), Median: before morning Kaftrio dose
Experimental: The clinical performance of our validated method was tested on n = 25 samples from pediatric patients affected by cystic fibrosis. Table 5 reports plasma concentrations of IVA, TEZ and ELX measured before (T0) and 4 h after (T4) the morning dose assumption of Kaftrio® (corresponding to IVA Tmax). For IVA, the plasma concentration at 12 h (T12) was obtained by using C4h*e^−β(t12−t4), and the AUC0–12h was calculated to assess the systemic exposure within the interval between two doses (Table 5). Thereafter, AUC0–12h values were multiplied by 2 in order to perform a regression analysis of T0 concentrations versus AUC0–24h.
The clinical applicability of our validated method was tested on n = 25 plasma samples from pediatric patients with a median (range) age of 9.5 (7–17) years and affected by cystic fibrosis (CF). These patients (n = 14 males and n = 11 females) were followed-up during the routine clinical practice at Pneumology and Cystic Fibrosis Unit of Bambino Gesù Children’s Hospital, and were concomitantly receiving therapies with pancreatic enzymes, bronchodilators, antibiotics (including carbapenems, macrolides, beta-lactams, lipopeptides, fluoroquinolones) and proton pump inhibitors.
In order to evaluate systemic exposure to each CFTR modulator, drug levels were measured at steady-state by collecting EDTA–whole blood samples before (T0, corresponding to the minimum plasma concentration, Ctrough,) and 4 h after the morning dose intake (T4, corresponding to the maximum concentration, Cmax). After centrifugation at 3500 rcf for 5 min, plasma was recovered from whole blood samples. Plasma samples were collected and stored at −80 °C until analysis.
According to the Kaftrio® summary of product characteristics (SmPC), patients received a morning dose consisting of two ivacaftor 75 mg/tezacaftor, 50 mg/elexacaftor, 100 mg tablets, whereas one ivacaftor 150 mg tablet was taken in the evening (every 12 h).
Elexacaftor/tezacaftor/ivacaftor plasma levels were determined using high-performance liquid chromatography (HPLC) coupled to mass spectrometry (MS/MS). EDTA–whole blood samples were collected before (T0) and 4 h after (T4) morning drug intake. Analysis of Kaftrio® plasma levels was performed at Division of Metabolic Diseases and Drug Biology of Bambino Gesù Children’s Hospital, IRCCS, in Rome (Italy). The liquid chromatography (LC) system consisted of an UHPLC Agilent 1290 Infinity II (Agilent Technologies, Deutschland GmbH, Waldbronn, Germany). Gradient chromatographic separation was performed in reverse phase mode with a Luna Omega 1.60 µm Polar C18 (100 × 2.1 mm) column (Phenomenex) maintained at 40 °C, with mobile phase A (0.1% formic acid (FA) in water) and mobile phase B (0.1% formic acid and 25% of 2-propanol in ACN). The flow rate of mobile phases was 0.4 mL/min. The duration of each chromatographic run was 10.50 min.
The volume injected was 1 μL. Detection of IVA, IVA-d9, TEZ, TEZ-d4, ELX and ELX-d3 was carried out using a 6470 Mass Spectrometry system (Agilent Technologies, Deutschland GmbH, Waldbronn, Germany) equipped with an ESI-JET-STREAM source operating in the positive ion (ESI+) mode. Mass spectrometric conditions were as follows: Gas Temperature 350 °C, Gas Flow 9 L/min, Sheath Gas Temperature 300 °C, Sheath Gas Flow 9 L/min, Capillary 4000 V, Nebulizer 35 psi.
A 10 µL measure of IS working solution with IVA-d9, TEZ-d4 and ELX-d3 was added to 50 µL of plasma or CAL or QC or blank sample in darkened tubes. After vortexing for 5 s, 300 µL of pure ACN were added to each sample. Samples were mixed for 60 s and centrifuged at 13,000 rpm for 9 min at room temperature. Thereafter, 200 µL of supernatant were collected in amber glass vials and injected into the UHPLC-MS/MS system.
Demographic data and PK parameters were analyzed using descriptive statistics. The median with interquartile range (IQR) was used to describe Ctrough levels. […]

[4] = set-up: method as in PMID 36015300; conditions: cited from earlier work
[5] = n = 25 pediatric CF patients, read-out: Plasma concentration T4 (Cmax), 25th Percentile
[6] = n = 25 pediatric CF patients, read-out: Plasma concentration T4 (Cmax), 75th Percentile
[7] = n = 25 pediatric CF patients, read-out: Plasma concentration T4 (Cmax), Median

Row | SMILES | Ctrough, mean ± SD ([1]; adult patients) | Ctrough, mean ± SD ([1]; children) | Ctrough (Cmin), mean ± SD [2] | Cmax at 4 h [3, 5] | Cmax at 4 h [3, 6] | Cmax at 4 h [3, 7] | AUC(0-t) ([3]; n = 25 pediatric CF patients, C12h estimated as C4h*e^−β(t12−t4), read-out: Measured AUC0–12h, 25th Percentile) | AUC(0-t) ([3]; n = 25 pediatric CF patients, C12h estimated as C4h*e^−β(t12−t4), read-out: Measured AUC0–12h, 75th Percentile) | AUC(0-t) ([3]; n = 25 pediatric CF patients, C12h estimated as C4h*e^−β(t12−t4), read-out: Measured AUC0–12h, Median) | Back-calculated Ctrough (T0), median (IQR) ([3]; from regression equation of AUC0–24h versus Ctrough (y = 27.6 * x + 4.30)) | Plasma concentration T0 (Ctrough), 25th Percentile ([3]; n = 25 pediatric CF patients) | Plasma concentration T0 (Ctrough), 75th Percentile ([3]; n = 25 pediatric CF patients) | Plasma concentration T0 (Ctrough), Median ([3]; n = 25 pediatric CF patients) | Measured AUC0–12h, 25th Percentile ([3]; n = 25 pediatric CF patients, C12h estimated as C4h*e^−β(t12−t4)) | Tmax [4]
1 | CC(C)(C)c1cc(C(C)(C)C)c(NC(=O)c2c[nH]c3ccccc3c2=O)cc1O [IVA, Ivacaftor] | 0.90 ± 0.37 µg/mL | 0.71 ± 0.20 µg/mL | 0.63 ± 0.26 µg/mL | 1070 ng/mL | 2430 ng/mL | 1490 ng/mL | 7930 ng·h/mL | 19400 ng·h/mL | 11400 ng·h/mL | 0.80 (0.42–1.32) µg/mL | 0.37 µg/mL | 1.34 µg/mL | 0.79 µg/mL | 5.33 µg·h/mL | –
2 | CC(C)(CO)c1cc2cc(NC(=O)C3(c4ccc5c(c4)OC(F)(F)O5)CC3)c(F)cc2n1C[C@@H](O)CO [TEZ, Tezacaftor] | – | – | 2.10 ± 0.82 µg/mL | 3750 ng/mL | 6320 ng/mL | 4520 ng/mL | – | – | – | – | 0.72 µg/mL | 1.87 µg/mL | 1.37 µg/mL | – | 3 h
